Laboratory results: paper PMC10180076, “Novel Biologically Active N-Substituted Benzimidazole Derived Schiff Bases: Design, Synthesis, and Biological Evaluation” (Molecules, 2023)

Experiments:
[1] = tested on: herpes simplex virus-1 (HSV-1 KOS); assay: Antiviral CPE reduction assay, HSV-1 KOS in HEL 299; assay type: cell-based; conditions: Human alphaherpesvirus 1; HEL 299 cells, 100 CCID50, MTS
in vitro [2] = conditions: human
Zika virus (Mr776) = assay: Antiviral CPE reduction assay, Zika virus in Huh-7; assay type: cell-based; conditions: Huh-7 cells, 100 CCID50, MTS
[3] = tested on: human coronavirus HCoV-NL63; assay: Antiviral CPE reduction assay, HCoV-NL63 in Huh-7; assay type: cell-based; conditions: Huh-7 cells, 100 CCID50, MTS
[4] = tested on: influenza B (B/Ned/537/05); assay: Antiviral CPE reduction assay, influenza B in MDCK; assay type: cell-based; conditions: Influenza B virus; MDCK cells, 100 CCID50, MTS
[5] = tested on: respiratory syncytial virus A (Long); assay: Antiviral CPE reduction assay, RSV A in HEL 299; assay type: cell-based; conditions: human respiratory syncytial virus; HEL 299 cells, 100 CCID50, MTS
[6] = tested on: yellow fever virus (YFV 17D); assay: microbe, parasite or virus in culture; assay type: cell-based; conditions: Huh-7, read-out: Antiviral Activity (EC50/μM) YFV 17D Huh-7
[7] = tested on: influenza A/H1N1 (A/Ned/378/05); assay: Antiviral CPE reduction assay, influenza A/H1N1 in MDCK; assay type: cell-based; conditions: Influenza A virus, MDCK cells, 100 CCID50, MTS
[8] = tested on: influenza A/H3N2 (A/HK/7/87); assay: Antiviral CPE reduction assay, influenza A/H3N2 in MDCK; assay type: cell-based; conditions: Influenza A virus, MDCK cells, 100 CCID50, MTS
[9] = tested on: human coronavirus HCoV-229E; assay: organism not typed; assay type: cell-based; conditions: HEL 299 cells, 100 CCID50, MTS; read-out: Antiviral Activity (EC50/μM) HCoV 229E HEL 299
sindbis virus = assay: Antiviral CPE reduction assay, Sindbis virus in Huh-7; assay type: cell-based; conditions: Huh-7 cells, 100 CCID50, MTS
in vitro [10] = conditions: human; remark: listed apart in the source
[11] = tested on: human coronavirus HCoV-OC43; assay: microbe, parasite or virus in culture; assay type: cell-based; conditions: Betacoronavirus 1, OC43; HEL 299 cells, 100 CCID50, MTS; read-out: Antiviral Activity (EC50/μM) HCoV OC43 HEL 299
in vitro [12] = conditions: dog
LN-229, glioblastoma = assay: Proliferation assay (MTS, 72 h), LN-229; assay type: cell-based, human; conditions: Homo sapiens, LN-229
Description: (§1) Human cancer cells used in this manuscript, namely Capan-1, HCT-116, NCI-H460, LN-229, HL-60, K-562, and Z-138, were acquired from the American Type Culture Collection (ATCC, Manassas, VA, USA), while the DND-41 cell line was purchased from the Deutsche Sammlung von Mikroorganismen und Zellkulturen (DSMZ Leibniz-Institut, Braunschweig, Germany). Culture media were purchased from Gibco Life Technologies, Merelbeke, Belgium, and supplemented with 10% fetal bovine serum (HyClone, Cytiva, Marlborough, MA, USA). Vincristine and docetaxel, which were used as the reference inhibitors, were purchased from Selleckchem (Munich, Germany). Stock solutions were prepared in DMSO.
(§2) Adherent cell lines LN-229, HCT-116, and NCI-H460 and Capan-1 cells were seeded at a density between 500 and 1500 cells per well, in 384-well tissue culture plates (Greiner, Kremsmünster, Austria). After overnight incubation, the cells were treated with seven different concentrations of the test compounds, ranging from 100 to 0.006 µM.
(§3) Suspension cell lines HL-60, K-562, Z-138, and DND-41 were seeded at densities ranging from 2500 to 5500 cells per well in 384-well culture plates containing the test compounds at the same concentration points. The cells were incubated for 72 h with the compounds and were then analyzed using the CellTiter 96® AQueous One Solution Cell Proliferation Assay (MTS) reagent (Promega, Madison, WI, USA) according to the manufacturer’s instructions. […] The compounds were tested in two independent experiments.

[13] = tested on: DND-41, acute lymphoblastic leukemia; assay: Proliferation assay (MTS, 72 h), DND-41; assay type: cell-based, human; conditions: Homo sapiens, DND41
Description: as §1, §2, §3

[14] = tested on: Capan-1, pancreatic adenocarcinoma; assay: Proliferation assay (MTS, 72 h), Capan-1; assay type: cell-based, human; conditions: Homo sapiens, CAPAN-1
Description: as §1, §2, §3

[15] = tested on: K-562, chronic myeloid leukemia; assay: Proliferation assay (MTS, 72 h), K-562; assay type: cell-based, human; conditions: Homo sapiens, K562
Description: as §1, §2, §3

[16] = tested on: Z-138, non-Hodgkin lymphoma; assay: Proliferation assay (MTS, 72 h), Z-138; assay type: cell-based, human; conditions: Homo sapiens, Z-138
Description: as §1, §2, §3

[17] = tested on: HCT-116, colorectal carcinoma; assay: Proliferation assay (MTS, 72 h), HCT-116; assay type: cell-based, human; conditions: Homo sapiens, HCT-116
Description: as §1, §2, §3

NCI-H460, lung carcinoma = assay: Proliferation assay (MTS, 72 h), NCI-H460; assay type: cell-based, human; conditions: Homo sapiens, NCI-H460
Description: as §1, §2, §3

[18] = tested on: HL-60, acute myeloid leukemia; assay: Proliferation assay (MTS, 72 h), HL-60; assay type: cell-based, human; conditions: Homo sapiens, HL-60
Description: as §1, §2, §3

| Structure (SMILES) | CC50 (in vitro [2]) [µM] | EC50 (Zika virus (Mr776)) [µM] | EC50 [3] [µM] | EC50 [4] [µM] | EC50 [5] [µM] | EC50 [6] [µM] | EC50 [7] [µM] | EC50 [8] [µM] | EC50 [9] [µM] | EC50 (sindbis virus) [µM] | CC50 (in vitro [12]) [µM] | IC50 (LN-229, glioblastoma) [µM] | IC50 [13] [µM] | IC50 [14] [µM] | IC50 [15] [µM] | IC50 [16] [µM] | IC50 [17] [µM] | IC50 (NCI-H460, lung carcinoma) [µM] | melting point [°C] | IC50 [18] [µM] | further results |
| --- | --- | --- | --- | --- | --- | --- | --- | --- | --- | --- | --- | --- | --- | --- | --- | --- | --- | --- | --- | --- | --- |
| O=c1[nH]c(=O)n([C@H]2C[C@H](O)[C@@H](CO)O2)cc1/C=C/Br [BVDU, brivudine, reference compound] | > 100 |  |  |  |  |  |  |  |  |  |  |  |  |  |  |  |  |  |  |  | EC50 [1]: 0.05 µM |
| CC(C)Cn1c(N)nc2ccccc21 [Compound 17, 2-amino-1-isobutylbenzimidazole] | > 100 | > 100 | > 100 | > 100 | > 100 | > 100 | > 100 | > 100 | 78.9 | > 100 | > 100 |  |  |  |  |  |  |  |  |  | EC50 [1]: > 100 µM; CC50 (in vitro [10]): > 100 µM; EC50 [11]: > 100 µM |
| Cn1c(N)nc2ccccc21 [Compound 18, 2-amino-1-methylbenzimidazole] | > 100 | 43.1 | > 100 | > 100 | > 100 | > 100 | > 100 | > 100 | > 100 | > 100 | > 100 |  |  |  |  |  |  |  |  |  | EC50 [1]: > 100 µM; CC50 (in vitro [10]): > 100 µM; EC50 [11]: > 100 µM |
| Cn1c(N)nc2ccc(C#N)cc21 [Compound 22, 2-amino-6-cyano-1-methylbenzimidazole] | > 100 | 46.4 | > 100 | > 100 | 78.7 | > 100 | > 100 | > 100 | > 100 | > 100 | > 100 |  |  |  |  |  |  |  |  |  | EC50 [1]: > 100 µM; CC50 (in vitro [10]): > 100 µM; EC50 [11]: > 100 µM |
| CC(C)Cn1c(/N=C/c2ccc(N(C)C)cc2)nc2ccccc21 [Compound 28, (E)-4-(((1-Isobutyl-1H-benzo[d]imidazol-2-yl)imino)methyl)-N,N-dimethylaniline] |  |  |  |  |  |  |  |  |  |  |  | > 100 | > 100 | > 100 | > 100 | > 100 | 15.2 | > 100 | 277 to 279 | > 100 |  |
| CN(C)c1ccc(/C=N/c2nc3ccccc3n2C)cc1 [Compound 33, (E)-N,N-Dimethyl-4-(((1-methyl-1H-benzo[d]imidazol-2-yl)imino)methyl)aniline] |  |  |  |  |  |  |  |  |  |  |  | > 100 | > 100 | > 100 | > 100 | > 100 | > 100 | > 100 | 186 to 188 | > 100 |  |
| CN(C)c1ccc(/C=N/c2nc3ccc(C#N)cc3n2-c2ccccc2)cc1 [Compound 39, (E)-2-((4-(Dimethylamino)benzylidene)amino)-1-phenyl-1H-benzo[d]imidazole-6-carbonitrile] |  |  |  |  |  |  |  |  |  |  |  | > 100 | > 100 | > 100 | > 100 | > 100 | > 100 | > 100 | 247 to 251 | > 100 |  |
| CCCCCCn1c(/N=C/c2ccc(N(C)C)cc2)nc2ccc(C#N)cc21 [Compound 43, (E)-2-((4-(Dimethylamino)benzylidene)amino)-1-hexyl-1H-benzo[d]imidazole-6-carbonitrile] |  |  |  |  |  |  |  |  |  |  |  | > 100 | > 100 | > 100 | > 100 | > 100 | > 100 | 91.6 | 165 to 170 | 33.5 |  |
| CCCCCCn1c(/N=C/c2ccc(N(CC)CC)cc2O)nc2ccccc21 [Compound 44, (E)-5-(Diethylamino)-2-(((1-hexyl-1H-benzo[d]imidazol-2-yl)imino)methyl)phenol] |  |  |  |  |  |  |  |  |  |  |  | > 100 | > 100 | > 100 | > 100 | > 100 | > 100 | > 100 | 201 to 204 | 83.9 |  |
| CCC(CC)COC(=O)[C@H](C)N[P@](=O)(OC[C@H]1O[C@@](C#N)(c2ccc3c(N)ncnn23)[C@H](O)[C@@H]1O)Oc1ccccc1 [Remdesivir, remdesivir, reference compound] | > 10 | 0.7 | 0.03 |  | 0.03 | 6.2 |  |  | 0.06 | > 10 |  |  |  |  |  |  |  |  |  |  | CC50 (in vitro [10]): > 10 µM; EC50 [11]: 0.06 µM |
| NC(=O)c1ncn([C@@H]2O[C@H](CO)[C@@H](O)[C@H]2O)n1 [Ribavirin, ribavirin, reference compound] |  | > 250 | > 250 | 2.8 | 10.8 | > 250 | 10.5 | 4 | 82.6 | 148 | 67 |  |  |  |  |  |  |  |  |  |  |
| CC(N)C12CC3CC(CC(C3)C1)C2 (centres unmarked) [Rimantadine, rimantadine, reference compound] |  |  |  | > 100 |  |  | 5 | 0.05 |  |  | > 100 |  |  |  |  |  |  |  |  |  |  |
| CC(=O)N[C@H]1[C@H]([C@H](O)[C@H](O)CO)OC(C(=O)O)=C[C@@H]1N=C(N)N [Zanamivir, zanamivir, reference compound] |  |  |  | 0.05 |  |  | 0.1 | 16.8 |  |  | > 100 |  |  |  |  |  |  |  |  |  |  |
